Laboratory results: patent US10093671B2, “2-oxo-6,7-dihydrobenzo[a]quinolizine-3-carboxylic acid derivatives for the treatment and prophylaxis of hepatitis B virus infection” (Hoffmann-La Roche Inc., priority 2015, dated 2018)
Where a name gives a salt, the structure may show the parent alone.

Tested on: HBV DNA
Assay: HBV DNA assay (real-time qPCR of extracellular HBV DNA copy number, HepG2.2.15 cells)
Assay type: cell-based
Details: Hepatitis B virus, 144 h, six days, extracellular HBV DNA by qPCR, read-out: IC50 (Anti HBV DNA production activity)
Experimental: The assay employs real-time qPCR (TaqMan) to directly measure extracellular HBV DNA copy number. HepG2.2.15 cells were plated in 96-well microtiter plates. Only the interior wells were utilized to reduce “edge effects” observed during cell culture, the exterior wells were filled with complete medium to help minimize sample evaporation. On the following day, the HepG2.2.15 cells were washed and the medium was replaced with complete medium containing various concentrations of a test compound in triplicate. 3TC was used as the positive control, while media alone was added to cells as a negative control (virus control, VC). Three days later, the culture medium was replaced with fresh medium containing the appropriately diluted drug. Six days following the initial administration of the test compound, the cell culture supernatant was collected, treated with pronase and then used in a real-time qPCR/TaqMan assay to determine HBV DNA copy numbers. Antiviral activity was calculated from the reduction in HBV DNA levels (IC50).

`COCCCOc1cc2c(cc1OC)-c1cc(=O)c(C(=O)O)cn1C(c1cc(C)cs1)C2` (centres unmarked) [Example 7, 10-methoxy-9-(3-methoxypropoxy)-6-(4-methyl-2-thienyl)-2-oxo-6,7-dihydrobenzo[a]quinolizine-3-carboxylic Acid] and `COc1cc2c(cc1OCC1CC1)CC(c1cccs1)n1cc(C(=O)O)c(=O)cc1-2` (centres unmarked) [Example 15, 9-(cyclopropylmethoxy)-10-methoxy-2-oxo-6-(2-thienyl)-6,7-dihydrobenzo[a]quinolizine-3-carboxylic Acid] cannot be ordered by IC50: under 32 nM for the first, under 32 nM for the second.

Tested on: HBsAg
Assay: microbe, parasite or virus in culture
Details: Hepatitis B virus, HepG2.2.15, read-out: IC50 (HBsAg secretion reduced by 50% compared to the no drug control)
Experimental: HepG2.2.15 cells (Acs et al. Proc Natl Acad Sci USA, 84, (1987), 4641-4), a constitutively HBV-expressing cell line were cultured in DMEM+Glutamax-I medium (Invitrogen, Carlsbad, Calif., USA), supplemented with 10% fetal bovine serum (Invitrogen) and G418 (Invitrogen) at a final concentration of 200 mg/L and maintained in 5% CO2 at 37° C.
HepG2.2.15 cells were seeded in duplicate into white, 96-well plates at 1.5×10^4 cells/well. The cells were treated with a three-fold serial dilution series of the compounds in DMSO. The final DMSO concentration in all wells was 1% and DMSO was used as no drug control.
The HBsAg chemiluminescence immunoassay (CLIA) kit (Autobio Diagnostics Co., Zhengzhou, China, Catalog number: CL0310-2) was used to measure the levels of secreted HBV antigens semi-quantitatively. For the detection 50 μL/well culture supernatant was used and HBsAg was quantified using HBsAg chemiluminescence immunoassay (CLIA) kit (Autobio Diagnostics Co., Zhengzhou, China, Catalog number: CL0310-2), 50 μL of the supernatant was transferred to the CLIA assay plate and 50 μL of enzyme conjugate reagent was added into each well. The plates were sealed and gently agitated for 1 hour at room temperature. The supernatant-enzyme-mixture was discarded and wells were washed 6 times with 300 μL of PBS. The residual liquid was removed by plating the CLIA plate right side down on absorbent tissue paper. 25 μL of substrates A and B were added to each well. Luminance was measured using a luminometer (Mithras LB 940 Multimode Microplate Reader) after 10 minutes incubation. Dose-response curves were generated and the IC50 value was extrapolated by using the E-WorkBook Suite (ID Business Solutions Ltd., Guildford, UK). The IC50 was defined as the compound concentration (or conditioned media log dilution) at which HBsAg secretion was reduced by 50% compared to the no drug control.

Going from `COCCCOc1cc2c(cc1OC)-c1cc(=O)c(C(=O)O)cn1C(c1ccc(O)cc1)C2` (centres unmarked) [Example 4, 6-(4-hydroxyphenyl)-10-methoxy-9-(3-methoxypropoxy)-2-oxo-6,7-dihydrobenzo[a]quinolizine-3-carboxylic Acid] to `COCCCOc1cc2c(cc1OC)-c1cc(=O)c(C(=O)O)cn1C(c1ccc(F)cc1)C2` (centres unmarked) [Example 9, 6-(4-fluorophenyl)-10-methoxy-9-(3-methoxypropoxy)-2-oxo-6,7-dihydrobenzo[a]quinolizine-3-carboxylic Acid], the IC50 falls from 1160 nM to 83 nM (14-fold).

Going from `COCCCOc1cc2c(cc1OC)-c1cc(=O)c(C(=O)O)cn1C(c1ccc(OC)cc1)C2` (centres unmarked) [Example 5, 10-methoxy-6-(4-methoxyphenyl)-9-(3-methoxypropoxy)-2-oxo-6,7-dihydrobenzo[a]quinolizine-3-carboxylic Acid] to `COCCCOc1cc2c(cc1OC)-c1cc(=O)c(C(=O)O)cn1C(c1ccc(OCc3ccccc3)cc1)C2` (centres unmarked) [Example 6, 6-(4-benzyloxyphenyl)-10-methoxy-9-(3-methoxypropoxy)-2-oxo-6,7-dihydrobenzo[a]quinolizine-3-carboxylic Acid], the IC50 rises from 800 nM to 1930 nM (2.4-fold). The first is the more potent here.

`COCCCOc1cc2c(cc1OC)-c1cc(=O)c(C(=O)O)cn1C(c1cc(C)cs1)C2` (centres unmarked) [Example 7, 10-methoxy-9-(3-methoxypropoxy)-6-(4-methyl-2-thienyl)-2-oxo-6,7-dihydrobenzo[a]quinolizine-3-carboxylic Acid] and `COCCCOc1cc2c(cc1OC)-c1cc(=O)c(C(=O)O)cn1C(c1ccccc1C)C2` (centres unmarked) [Example 10, 10-methoxy-9-(3-methoxypropoxy)-6-(o-tolyl)-2-oxo-6,7-dihydrobenzo[a]quinolizine-3-carboxylic Acid] are within 1.5-fold of each other in IC50: 9 nM for the first, 10 nM for the second.

Compared with `COc1ccc2c(c1C)CC(c1cccs1)n1cc(C(=O)O)c(=O)cc1-2` (centres unmarked) [Example 11, 9-methoxy-8-methyl-2-oxo-6-(2-thienyl)-6,7-dihydrobenzo[a]quinolizine-3-carboxylic Acid], `COc1cc2c(cc1C)CC(c1cccs1)n1cc(C(=O)O)c(=O)cc1-2` (centres unmarked) [Example 33, 10-methoxy-9-methyl-2-oxo-6-(2-thienyl)-6,7-dihydrobenzo[a]quinolizine-3-carboxylic Acid] is 4.9-fold lower in IC50: 170 nM for the first, 35 nM for the second.

First: COc1cc2c(cc1OCc1ccccc1)CC(c1cccs1)n1cc(C(=O)O)c(=O)cc1-2 (centres unmarked) [Example 12, 9-benzyloxy-10-methoxy-2-oxo-6-(2-thienyl)-6,7-dihydrobenzo[a]quinolizine-3-carboxylic Acid]
Second: COc1cc2c(cc1OCCCO)CC(c1cccs1)n1cc(C(=O)O)c(=O)cc1-2 (centres unmarked) [Example 17, 9-(3-hydroxypropoxy)-10-methoxy-2-oxo-6-(2-thienyl)-6,7-dihydrobenzo[a]quinolizine-3-carboxylic Acid]
The IC50 of the first is 3.6-fold lower: 5 nM for the first, 18 nM for the second.

Compared with `COc1cc2c(cc1OC)-c1cc(=O)c(C(=O)O)cn1C(c1cccs1)C2` (centres unmarked) [Example 13, 9,10-dimethoxy-2-oxo-6-(2-thienyl)-6,7-dihydrobenzo[a]quinolizine-3-carboxylic Acid], `COc1cc2c(cc1OCC(C)C)CC(c1cccs1)n1cc(C(=O)O)c(=O)cc1-2` (centres unmarked) [Example 14, 9-isobutoxy-10-methoxy-2-oxo-6-(2-thienyl)-6,7-dihydrobenzo[a]quinolizine-3-carboxylic Acid] is 3-fold lower in IC50: 6 nM for the first, 2 nM for the second.

First: COc1cc2c(cc1OCC1CC1)CC(c1cccs1)n1cc(C(=O)O)c(=O)cc1-2 (centres unmarked) [Example 15, 9-(cyclopropylmethoxy)-10-methoxy-2-oxo-6-(2-thienyl)-6,7-dihydrobenzo[a]quinolizine-3-carboxylic Acid]
Second: COc1cc2c(cc1OCC(F)(F)F)CC(c1cccs1)n1cc(C(=O)O)c(=O)cc1-2 (centres unmarked) [Example 27, 10-methoxy-2-oxo-6-(2-thienyl)-9-(2,2,2-trifluoroethoxy)-6,7-dihydrobenzo[a]quinolizine-3-carboxylic Acid]
The IC50 of the first is 1.5-fold lower: 2 nM for the first, 3 nM for the second.

Compared with `COc1cc2c(cc1OCCCn1cccn1)CC(c1cccs1)n1cc(C(=O)O)c(=O)cc1-2` (centres unmarked) [Example 16, 10-methoxy-2-oxo-9-(3-pyrazol-1-ylpropoxy)-6-(2-thienyl)-6,7-dihydrobenzo[a]quinolizine-3-carboxylic Acid], `COc1cc2c(cc1OCCCn1cncn1)CC(c1cccs1)n1cc(C(=O)O)c(=O)cc1-2` (centres unmarked) [Example 29, 10-methoxy-2-oxo-6-(2-thienyl)-9-[3-(1,2,4-triazol-1-yl)propoxy]-6,7-dihydrobenzo[a]quinolizine-3-carboxylic Acid] is 7.1-fold higher in IC50: 9 nM for the first, 64 nM for the second.

First: COc1cc2c(cc1OCCCN1CCCCC1)CC(c1cccs1)n1cc(C(=O)O)c(=O)cc1-2 (centres unmarked) [Example 18, 10-methoxy-2-oxo-9-[3-(1-piperidyl)propoxy]-6-(2-thienyl)-6,7-dihydrobenzo[a]quinolizine-3-carboxylic Acid Formate]
Second: COc1cc2c(cc1OCCCN1CCOCC1)CC(c1cccs1)n1cc(C(=O)O)c(=O)cc1-2 (centres unmarked) [Example 28, 10-methoxy-9-(3-morpholinopropoxy)-2-oxo-6-(2-thienyl)-6,7-dihydrobenzo[a]quinolizine-3-carboxylate]
The IC50 of the first is 9.7-fold higher: 97 nM for the first, 10 nM for the second.

`COc1cc2c(cc1OCCCC#N)CC(c1cccs1)n1cc(C(=O)O)c(=O)cc1-2` (centres unmarked) [Example 19, 9-(3-cyanopropoxy)-10-methoxy-2-oxo-6-(2-thienyl)-6,7-dihydrobenzo[a]quinolizine-3-carboxylic Acid] and `COc1cc2c(cc1OCCCSC)CC(c1cccs1)n1cc(C(=O)O)c(=O)cc1-2` (centres unmarked) [Example 31, 10-methoxy-9-(3-methylsulfanylpropoxy)-2-oxo-6-(2-thienyl)-6,7-dihydrobenzo[a]quinolizine-3-carboxylic Acid] are within 1.5-fold of each other in IC50: 5 nM for the first, 4 nM for the second.

Going from `COc1cc2c(cc1OCCN1CCCC1=O)CC(c1cccs1)n1cc(C(=O)O)c(=O)cc1-2` (centres unmarked) [Example 20, 10-methoxy-2-oxo-9-[2-(2-oxopyrrolidin-1-yl)ethoxy]-6-(2-thienyl)-6,7-dihydrobenzo[a]quinolizine-3-carboxylic Acid] to `COc1cc2c(cc1OCCCS(C)(=O)=O)CC(c1cccs1)n1cc(C(=O)O)c(=O)cc1-2` (centres unmarked) [Example 32, 10-methoxy-9-(3-methylsulfonylpropoxy)-2-oxo-6-(2-thienyl)-6,7-dihydrobenzo[a]quinolizine-3-carboxylic Acid], the IC50 rises from 37 nM to 110 nM (3-fold). The first is the more potent here.

First: COc1cc2c(cc1OCCCCCCNC(=O)OC(C)(C)C)CC(c1cccs1)n1cc(C(=O)O)c(=O)cc1-2 (centres unmarked) [Example 21, 9-[6-(tert-butoxycarbonylamino)hexoxy]-10-methoxy-2-oxo-6-(2-thienyl)-6,7-dihydrobenzo[a]quinolizine-3-carboxylic Acid]
Second: COc1cc2c(cc1OCCCCCCNC(C)=O)CC(c1cccs1)n1cc(C(=O)O)c(=O)cc1-2 (centres unmarked) [Example 23, 9-(6-acetamidohexoxy)-10-methoxy-2-oxo-6-(2-thienyl)-6,7-dihydrobenzo[a]quinolizine-3-carboxylic Acid]
The IC50 of the first is 3-fold lower: 6 nM for the first, 18 nM for the second. The first is the more potent here.

Going from `COc1cc2c(cc1OCCCCCCN)CC(c1cccs1)n1cc(C(=O)O)c(=O)cc1-2` (centres unmarked) [Example 22, 9-(6-aminohexoxy)-10-methoxy-2-oxo-6-(2-thienyl)-6,7-dihydrobenzo[a]quinolizine-3-carboxylic Acid Formate] to `COc1cc2c(cc1OCCCCCCO)CC(c1cccs1)n1cc(C(=O)O)c(=O)cc1-2` (centres unmarked) [Example 25, 9-(6-hydroxyhexoxy)-10-methoxy-2-oxo-6-(2-thienyl)-6,7-dihydrobenzo[a]quinolizine-3-carboxylic Acid], the IC50 falls from 21 nM to 3 nM (7-fold).

First: COc1cc2c(cc1OCCCCCCNS(C)(=O)=O)CC(c1cccs1)n1cc(C(=O)O)c(=O)cc1-2 (centres unmarked) [Example 24, 9-[6-(methanesulfonamido)hexoxy]-10-methoxy-2-oxo-6-(2-thienyl)-6,7-dihydrobenzo[a]quinolizine-3-carboxylic Acid]
Second: COc1cc2c(cc1OCCCC(=O)O)CC(c1cccs1)n1cc(C(=O)O)c(=O)cc1-2 (centres unmarked) [Example 30, 9-(3-carboxypropoxy)-10-methoxy-2-oxo-6-(2-thienyl)-6,7-dihydrobenzo[a]quinolizine-3-carboxylic Acid]
The IC50 of the first is 32-fold lower: 10 nM for the first, 320 nM for the second. The first is the more potent here.

First: COc1cc2c(cc1OCC(C)(C)CO)CC(c1cccs1)n1cc(C(=O)O)c(=O)cc1-2 (centres unmarked) [Example 26, 9-(3-hydroxy-2,2-dimethyl-propoxy)-10-methoxy-2-oxo-6-(2-thienyl)-6,7-dihydrobenzo[a]quinolizine-3-carboxylic Acid]
Second: CCc1cc2c(cc1OC)-c1cc(=O)c(C(=O)O)cn1C(c1cccs1)C2 (centres unmarked) [Example 34, 9-ethyl-10-methoxy-2-oxo-6-(2-thienyl)-6,7-dihydrobenzo[a]quinolizine-3-carboxylic Acid]
The IC50 of the first is 6-fold lower: 4 nM for the first, 24 nM for the second.

Compared with `CCCc1cc2c(cc1OC)-c1cc(=O)c(C(=O)O)cn1C(c1cccs1)C2` (centres unmarked) [Example 35, 10-methoxy-2-oxo-9-propyl-6-(2-thienyl)-6,7-dihydrobenzo[a]quinolizine-3-carboxylic Acid], `COc1cc2c(cc1N1CCCC1)CC(c1cccs1)n1cc(C(=O)O)c(=O)cc1-2` (centres unmarked) [Example 36, 10-methoxy-2-oxo-9-pyrrolidin-1-yl-6-(2-thienyl)-6,7-dihydrobenzo[a]quinolizine-3-carboxylic Acid] is 7.3-fold lower in IC50: 22 nM for the first, 3 nM for the second.

`COCCCOc1cc2c(cc1Cl)-c1cc(=O)c(C(=O)O)cn1C(c1cc3ccccc3s1)C2` (centres unmarked) [Example 37, 6-(benzothiophen-2-yl)-10-chloro-9-(3-methoxypropoxy)-2-oxo-6,7-dihydrobenzo[a]quinolizine-3-carboxylic Acid] gave an IC50 of 4420 nM.
